Reference: patent publication US20090018019A1, “INCREASING PATHOGEN DEFENCE IN PLANTS” (priority 2005, published 2009)

How the values were obtained:
Assay in all cases: DNA chip expression analysis of barley leaves after soil treatment
Format in all cases: in vivo
Conditions in all cases: 10 mg per plant to soil
[1] = test system: HV_CEb0020C01r2_at INTEGUMENTARY MUCIN B.1
Method: (§1) Barley seeds (of the Baroness variety) were sown in pots containing soil about 2 cm deep (1250 g of sandy loam/per pot; the soil moisture content was adjusted to 70% of the maximum water-holding capacity) and cultivated in a climatized chamber under specified light, moisture and temperature conditions (15 h white light, 70% atmospheric humidity, 23-19° C. day/night).
(§2) 14 days after the emergence of the barley plants 10 mg of imidacloprid per plant, dissolved in 100 ml water, were applied by means of a pipette to the soil around the base of the shoot. The same volume of water without any active compound was applied to the control pots. After the soil treatment the plants were no longer watered. At various times after application (0.25; 1; 6; 8; 11; 13; 15; 16 and 17 days) the leaves were harvested, quick-frozen in liquid nitrogen and stored at −80° C. until further treatment.
(§3) The labelled RNA probes for the DNA chip hybridization were produced according to the protocols (Expression Analysis, Technical Manual) of the Affymetrix company (Affymetrix Inc., 3380 Central Expressway, Santa Clara, Calif., USA). Whole RNA was first of all isolated from in each case 500 mg of the harvested leaves. 10 μg portions of whole RNA were used for the first and second strand cDNA synthesis. The cDNA was amplified with T7 polymerase and simultaneously labelled with biotin-UTP. 20 μg portions of this biotinylated cDNA were used for the hybridization of the barley genome array (Barleyl Gene Chip, Item no: 511012) from Affymetrix. This DNA microarray contains DNA sequences of 22840 genes composed of a total of 400000 EST (Expressed Sequence Tag) sequences. Then the DNA microarrays were washed in the Affymetrix Fluidics Station, stained with streptavidin/phycoerythrin (Molecular Probes, P/N S-866) and scanned with the Affymetrix Gene Chip Scanner 3000. The fluorescence data obtained were analyzed with the Microarray Suite 5 software from Affymetrix and the Expressionist Pro software from the GeneData company. After a quality check, all of the DNA chip analyses were stored in a database. Since the Affymetrix Gene Chip System is based on measuring the absolute expression values of the genes contained in the chip, the expression values of the biological replicates of treated and non-treated plants were averaged after normalization (median calculation). With the aid of the statistical ANOVA method, those genes were identified whose expression was increased in the plants treated with imidacloprid but remained relatively constant in the untreated controls. The assembly of gene groups from specific metabolic pathways, signal transduction chains or functions was carried out by a keyword search through the gene annotations supplied by Affymetrix and by linking the genes to their corresponding Gene Ontology Annotations (Gene Ontology Consortium).

[2] = test system: Contig17082_at TRYPSIN INHIBITOR
Method: as §1, §2, §3

[3] = test system: Contig2214_s_at PATHOGENESIS RELATED PROTEIN (HV-1A)
Method: as §1, §2, §3

[4] = test system: Contig12046_at PATHOGENESIS RELATED PROTEIN-1
Method: as §1, §2, §3

[5] = test system: Contig2212_s_at PATHOGENESIS-RELATED PROTEIN PRB1-3
Method: as §1, §2, §3

O=[N+]([O-])/N=C1\NCCN1Cc1ccc(Cl)nc1 [imidacloprid]
Induction factor = Expression (treated)/Expression (untreated) ([1]; 0.25 d): 1.4 | Median of the raw expression data, treated ([1]; 0.25 days): 96.81 | Induction factor = Expression (treated)/Expression (untreated) ([1]; 1 d): 0.9 | Median of the raw expression data, treated ([1]; 1 day): 87.44 | Induction factor = Expression (treated)/Expression (untreated) ([1]; 6 d): 4.3 | Median of the raw expression data, treated ([1]; 6 days): 418.12 | Induction factor = Expression (treated)/Expression (untreated) ([1]; 8 d): 2.8 | Median of the raw expression data, treated ([1]; 8 days): 428.35 | Induction factor = Expression (treated)/Expression (untreated) ([1]; 11 d): 2.2 | Median of the raw expression data, treated ([1]; 11 days): 389.74 | Induction factor = Expression (treated)/Expression (untreated) ([1]; 13 d): 1.7 | Median of the raw expression data, treated ([1]; 13 days): 180.00 | Induction factor = Expression (treated)/Expression (untreated) ([1]; 15 d): 1.0 | Median of the raw expression data, treated ([1]; 15 days): 170.35 | Induction factor = Expression (treated)/Expression (untreated) ([1]; 16 d): 1.2 | Median of the raw expression data, treated ([1]; 16 days): 161.77 | Induction factor = Expression (treated)/Expression (untreated) ([1]; 17 d): 0.6 | Median of the raw expression data, treated ([1]; 17 days): 106.72 | Induction factor = Expression (treated)/Expression (untreated) ([2]; 0.25 d): 0.9 | Median of the raw expression data, treated ([2]; 0.25 days): 161.42 | Induction factor = Expression (treated)/Expression (untreated) ([2]; 1 d): 1.1 | Median of the raw expression data, treated ([2]; 1 day): 162.50 | Induction factor = Expression (treated)/Expression (untreated) ([2]; 6 d): 3.8 | Median of the raw expression data, treated ([2]; 6 days): 745.06 | Induction factor = Expression (treated)/Expression (untreated) ([2]; 8 d): 3.7 | Median of the raw expression data, treated ([2]; 8 days): 853.21 | Induction factor = Expression (treated)/Expression (untreated) ([2]; 11 d): 3.6 | Median of the raw expression data, treated ([2]; 11 days): 911.63 | Induction factor = Expression (treated)/Expression (untreated) ([2]; 13 d): 2.2 | Median of the raw expression data, treated ([2]; 13 days): 281.55 | Induction factor = Expression (treated)/Expression (untreated) ([2]; 15 d): 1.5 | Median of the raw expression data, treated ([2]; 15 days): 209.34 | Induction factor = Expression (treated)/Expression (untreated) ([2]; 16 d): 1.6 | Median of the raw expression data, treated ([2]; 16 days): 276.41 | Induction factor = Expression (treated)/Expression (untreated) ([2]; 17 d): 1.1 | Median of the raw expression data, treated ([2]; 17 days): 225.25 | Induction factor = Expression (treated)/Expression (untreated) ([3]; 0.25 d): 0.9 | Median of the raw expression data, treated ([3]; 0.25 days): 86.29 | Induction factor = Expression (treated)/Expression (untreated) ([3]; 1 d): 0.5 | Median of the raw expression data, treated ([3]; 1 day): 44.68 | Induction factor = Expression (treated)/Expression (untreated) ([3]; 6 d): 9.8 | Median of the raw expression data, treated ([3]; 6 days): 3322.93 | Induction factor = Expression (treated)/Expression (untreated) ([3]; 8 d): 11.1 | Median of the raw expression data, treated ([3]; 8 days): 4807.28 | Induction factor = Expression (treated)/Expression (untreated) ([3]; 11 d): 9.3 | Median of the raw expression data, treated ([3]; 11 days): 4463.75 | Induction factor = Expression (treated)/Expression (untreated) ([3]; 13 d): 5.1 | Median of the raw expression data, treated ([3]; 13 days): 636.20 | Induction factor = Expression (treated)/Expression (untreated) ([3]; 15 d): 3.0 | Median of the raw expression data, treated ([3]; 15 days): 808.24 | Induction factor = Expression (treated)/Expression (untreated) ([3]; 16 d): 2.4 | Median of the raw expression data, treated ([3]; 16 days): 1241.52 | Induction factor = Expression (treated)/Expression (untreated) ([3]; 17 d): 0.6 | Median of the raw expression data, treated ([3]; 17 days): 472.04 | Induction factor = Expression (treated)/Expression (untreated) ([4]; 0.25 d): 0.9 | Median of the raw expression data, treated ([4]; 0.25 days): 76.89 | Induction factor = Expression (treated)/Expression (untreated) ([4]; 1 d): 0.8 | Median of the raw expression data, treated ([4]; 1 day): 46.22 | Induction factor = Expression (treated)/Expression (untreated) ([4]; 6 d): 6.5 | Median of the raw expression data, treated ([4]; 6 days): 786.00 | Induction factor = Expression (treated)/Expression (untreated) ([4]; 8 d): 7.2 | Median of the raw expression data, treated ([4]; 8 days): 1336.13 | Induction factor = Expression (treated)/Expression (untreated) ([4]; 11 d): 7.8 | Median of the raw expression data, treated ([4]; 11 days): 792.96 | Induction factor = Expression (treated)/Expression (untreated) ([4]; 13 d): 2.7 | Median of the raw expression data, treated ([4]; 13 days): 140.26 | Induction factor = Expression (treated)/Expression (untreated) ([4]; 15 d): 2.5 | Median of the raw expression data, treated ([4]; 15 days): 150.31 | Induction factor = Expression (treated)/Expression (untreated) ([4]; 16 d): 2.9 | Median of the raw expression data, treated ([4]; 16 days): 622.77 | Induction factor = Expression (treated)/Expression (untreated) ([4]; 17 d): 0.9 | Median of the raw expression data, treated ([4]; 17 days): 220.80 | Induction factor = Expression (treated)/Expression (untreated) ([5]; 0.25 d): 0.9 | Median of the raw expression data, treated ([5]; 0.25 days): 153.25 | Induction factor = Expression (treated)/Expression (untreated) ([5]; 1 d): 0.9 | Median of the raw expression data, treated ([5]; 1 day): 135.85 | Induction factor = Expression (treated)/Expression (untreated) ([5]; 6 d): 9.6 | Median of the raw expression data, treated ([5]; 6 days): 3508.08 | Induction factor = Expression (treated)/Expression (untreated) ([5]; 8 d): 10.3 | Median of the raw expression data, treated ([5]; 8 days): 3936.08 | Induction factor = Expression (treated)/Expression (untreated) ([5]; 11 d): 9.0 | Median of the raw expression data, treated ([5]; 11 days): 3866.40 | Induction factor = Expression (treated)/Expression (untreated) ([5]; 13 d): 3.7 | Median of the raw expression data, treated ([5]; 13 days): 470.29 | Induction factor = Expression (treated)/Expression (untreated) ([5]; 15 d): 2.3 | Median of the raw expression data, treated ([5]; 15 days): 378.35 | Induction factor = Expression (treated)/Expression (untreated) ([5]; 16 d): 2.4 | Median of the raw expression data, treated ([5]; 16 days): 756.91 | Induction factor = Expression (treated)/Expression (untreated) ([5]; 17 d): 0.7 | Median of the raw expression data, treated ([5]; 17 days): 376.36
